Measurements taken from ChEMBL document CHEMBL5291721, “A preclinical secondary pharmacology resource illuminates target-adverse drug reaction associations of marketed drugs” (Nat Commun, 2023).

Experiments:
[1] = molecular target: T1, 5-hydroxytryptamine receptor 1A (Homo sapiens, UniProt P08908)
T1 sequence (P08908 whole entry): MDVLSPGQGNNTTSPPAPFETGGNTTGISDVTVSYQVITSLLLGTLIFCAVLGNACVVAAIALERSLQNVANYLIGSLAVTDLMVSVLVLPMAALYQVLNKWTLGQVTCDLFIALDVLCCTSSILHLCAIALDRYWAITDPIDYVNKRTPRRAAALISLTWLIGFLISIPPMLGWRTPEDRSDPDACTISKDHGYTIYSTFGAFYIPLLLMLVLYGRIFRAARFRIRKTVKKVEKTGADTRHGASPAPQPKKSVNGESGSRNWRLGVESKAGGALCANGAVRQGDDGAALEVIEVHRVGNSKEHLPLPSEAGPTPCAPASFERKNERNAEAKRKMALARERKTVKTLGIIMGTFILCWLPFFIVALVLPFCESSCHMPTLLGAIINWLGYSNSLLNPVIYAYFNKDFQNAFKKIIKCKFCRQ

Progesterone receptor = molecular target: T2, Progesterone receptor (Homo sapiens, UniProt P06401)
T2 sequence (P06401 whole entry): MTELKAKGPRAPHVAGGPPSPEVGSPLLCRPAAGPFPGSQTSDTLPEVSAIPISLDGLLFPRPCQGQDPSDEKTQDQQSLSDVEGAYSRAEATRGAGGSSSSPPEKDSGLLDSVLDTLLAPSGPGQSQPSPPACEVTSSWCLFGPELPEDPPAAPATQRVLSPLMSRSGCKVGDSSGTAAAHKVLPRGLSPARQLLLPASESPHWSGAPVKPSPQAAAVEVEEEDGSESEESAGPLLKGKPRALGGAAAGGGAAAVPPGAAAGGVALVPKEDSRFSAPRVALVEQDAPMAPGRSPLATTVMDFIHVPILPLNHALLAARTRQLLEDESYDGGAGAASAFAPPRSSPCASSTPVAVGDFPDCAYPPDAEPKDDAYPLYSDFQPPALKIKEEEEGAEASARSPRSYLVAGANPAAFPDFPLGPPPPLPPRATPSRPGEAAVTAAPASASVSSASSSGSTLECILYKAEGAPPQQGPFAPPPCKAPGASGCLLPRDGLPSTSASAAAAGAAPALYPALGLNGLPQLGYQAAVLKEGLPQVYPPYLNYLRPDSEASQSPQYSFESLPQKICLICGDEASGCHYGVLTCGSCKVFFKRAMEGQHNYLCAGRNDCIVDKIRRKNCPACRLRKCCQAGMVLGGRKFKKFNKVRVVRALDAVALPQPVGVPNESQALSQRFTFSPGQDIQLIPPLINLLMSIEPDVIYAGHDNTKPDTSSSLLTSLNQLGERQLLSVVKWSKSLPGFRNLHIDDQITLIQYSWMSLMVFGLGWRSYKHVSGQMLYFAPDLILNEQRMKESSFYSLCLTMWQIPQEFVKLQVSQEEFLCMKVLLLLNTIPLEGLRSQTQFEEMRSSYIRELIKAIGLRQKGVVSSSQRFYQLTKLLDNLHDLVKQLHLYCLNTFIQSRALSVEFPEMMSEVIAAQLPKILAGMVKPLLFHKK

[2] = molecular target: cGMP-inhibited 3',5'-cyclic phosphodiesterase 3A (Homo sapiens, UniProt Q14432); type: functional
Chain of cGMP-inhibited 3',5'-cyclic phosphodiesterase 3A (Q14432 whole entry): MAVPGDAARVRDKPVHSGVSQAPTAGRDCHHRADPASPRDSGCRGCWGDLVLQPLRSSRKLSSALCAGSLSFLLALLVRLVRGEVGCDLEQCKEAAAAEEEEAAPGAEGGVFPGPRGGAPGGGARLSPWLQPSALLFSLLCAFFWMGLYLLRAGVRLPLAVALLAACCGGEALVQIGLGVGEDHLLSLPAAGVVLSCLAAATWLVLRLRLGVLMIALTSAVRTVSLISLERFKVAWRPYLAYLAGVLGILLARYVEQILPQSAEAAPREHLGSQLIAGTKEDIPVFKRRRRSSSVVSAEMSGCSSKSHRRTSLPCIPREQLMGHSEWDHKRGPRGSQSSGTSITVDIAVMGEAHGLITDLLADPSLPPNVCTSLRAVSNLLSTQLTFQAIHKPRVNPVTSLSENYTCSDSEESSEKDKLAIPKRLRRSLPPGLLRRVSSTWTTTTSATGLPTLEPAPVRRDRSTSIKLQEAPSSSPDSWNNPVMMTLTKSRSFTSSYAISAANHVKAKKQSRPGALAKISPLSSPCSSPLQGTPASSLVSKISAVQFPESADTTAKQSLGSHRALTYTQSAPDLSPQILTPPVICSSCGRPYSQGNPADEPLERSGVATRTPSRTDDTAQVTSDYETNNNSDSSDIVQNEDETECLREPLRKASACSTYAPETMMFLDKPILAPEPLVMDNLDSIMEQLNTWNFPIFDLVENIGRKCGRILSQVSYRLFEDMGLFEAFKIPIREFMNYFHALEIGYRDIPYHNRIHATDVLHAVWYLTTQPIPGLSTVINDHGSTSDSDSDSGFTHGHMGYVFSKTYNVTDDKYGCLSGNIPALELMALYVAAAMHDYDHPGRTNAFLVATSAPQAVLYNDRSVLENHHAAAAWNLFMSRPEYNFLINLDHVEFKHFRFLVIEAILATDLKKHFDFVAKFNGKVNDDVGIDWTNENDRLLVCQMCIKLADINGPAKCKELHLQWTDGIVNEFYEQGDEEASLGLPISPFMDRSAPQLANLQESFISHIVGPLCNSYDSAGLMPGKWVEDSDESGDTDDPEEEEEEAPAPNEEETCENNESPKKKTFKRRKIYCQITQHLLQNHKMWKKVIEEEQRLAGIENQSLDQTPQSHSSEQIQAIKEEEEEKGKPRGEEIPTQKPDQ

[3] = molecular target: T3, Alpha-2A adrenergic receptor (Homo sapiens, UniProt P08913)
T3 sequence (P08913 whole entry): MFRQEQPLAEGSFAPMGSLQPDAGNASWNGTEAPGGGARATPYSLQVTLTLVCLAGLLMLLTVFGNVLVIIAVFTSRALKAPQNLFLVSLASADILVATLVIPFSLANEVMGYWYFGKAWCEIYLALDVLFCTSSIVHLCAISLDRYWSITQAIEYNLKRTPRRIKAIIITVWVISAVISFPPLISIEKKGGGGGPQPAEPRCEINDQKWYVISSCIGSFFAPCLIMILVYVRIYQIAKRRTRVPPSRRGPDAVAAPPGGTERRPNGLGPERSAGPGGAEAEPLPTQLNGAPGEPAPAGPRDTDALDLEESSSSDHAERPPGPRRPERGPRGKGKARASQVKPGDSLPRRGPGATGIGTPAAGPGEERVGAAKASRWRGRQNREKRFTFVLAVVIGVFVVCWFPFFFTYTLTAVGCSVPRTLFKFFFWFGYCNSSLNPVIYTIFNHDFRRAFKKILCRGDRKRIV

Histamine H3 receptor = Histamine H3 receptor (Homo sapiens, UniProt Q9Y5N1)
Chain of Histamine H3 receptor (Q9Y5N1 whole entry): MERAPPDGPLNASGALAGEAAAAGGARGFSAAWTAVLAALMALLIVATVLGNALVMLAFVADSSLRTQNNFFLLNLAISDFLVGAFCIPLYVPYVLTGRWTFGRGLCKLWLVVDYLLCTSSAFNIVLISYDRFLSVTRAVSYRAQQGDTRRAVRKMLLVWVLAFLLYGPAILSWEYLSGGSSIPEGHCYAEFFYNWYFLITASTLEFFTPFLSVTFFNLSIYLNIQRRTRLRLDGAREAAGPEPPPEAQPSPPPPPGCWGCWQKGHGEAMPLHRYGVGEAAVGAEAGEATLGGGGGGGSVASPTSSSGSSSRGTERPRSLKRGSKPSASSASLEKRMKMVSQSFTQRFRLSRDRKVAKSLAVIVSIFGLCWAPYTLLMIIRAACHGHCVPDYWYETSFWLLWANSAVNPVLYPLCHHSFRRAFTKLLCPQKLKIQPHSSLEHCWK

[4] = molecular target: Prostaglandin G/H synthase 1 (Homo sapiens, UniProt P23219); type: functional
Chain of Prostaglandin G/H synthase 1 (P23219 whole entry): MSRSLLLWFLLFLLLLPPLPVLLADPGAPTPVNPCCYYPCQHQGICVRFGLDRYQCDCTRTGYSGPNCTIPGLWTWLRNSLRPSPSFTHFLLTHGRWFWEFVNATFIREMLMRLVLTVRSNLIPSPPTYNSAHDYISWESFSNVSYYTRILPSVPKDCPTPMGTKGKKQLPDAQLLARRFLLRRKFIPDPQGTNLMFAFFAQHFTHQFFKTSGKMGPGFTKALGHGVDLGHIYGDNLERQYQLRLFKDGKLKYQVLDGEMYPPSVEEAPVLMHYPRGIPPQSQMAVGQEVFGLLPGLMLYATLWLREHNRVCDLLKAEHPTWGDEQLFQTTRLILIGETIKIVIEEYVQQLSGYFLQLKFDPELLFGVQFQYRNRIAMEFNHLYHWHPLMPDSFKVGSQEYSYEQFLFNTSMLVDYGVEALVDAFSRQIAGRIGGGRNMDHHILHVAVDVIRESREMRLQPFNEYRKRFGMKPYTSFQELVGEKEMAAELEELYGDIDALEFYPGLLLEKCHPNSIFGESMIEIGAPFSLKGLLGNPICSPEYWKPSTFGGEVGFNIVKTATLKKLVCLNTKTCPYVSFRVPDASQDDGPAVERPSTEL

[5] = molecular target: 3',5'-cyclic-AMP phosphodiesterase 4A (Homo sapiens, UniProt P27815); type: functional
Chain of 3',5'-cyclic-AMP phosphodiesterase 4A (P27815 whole entry): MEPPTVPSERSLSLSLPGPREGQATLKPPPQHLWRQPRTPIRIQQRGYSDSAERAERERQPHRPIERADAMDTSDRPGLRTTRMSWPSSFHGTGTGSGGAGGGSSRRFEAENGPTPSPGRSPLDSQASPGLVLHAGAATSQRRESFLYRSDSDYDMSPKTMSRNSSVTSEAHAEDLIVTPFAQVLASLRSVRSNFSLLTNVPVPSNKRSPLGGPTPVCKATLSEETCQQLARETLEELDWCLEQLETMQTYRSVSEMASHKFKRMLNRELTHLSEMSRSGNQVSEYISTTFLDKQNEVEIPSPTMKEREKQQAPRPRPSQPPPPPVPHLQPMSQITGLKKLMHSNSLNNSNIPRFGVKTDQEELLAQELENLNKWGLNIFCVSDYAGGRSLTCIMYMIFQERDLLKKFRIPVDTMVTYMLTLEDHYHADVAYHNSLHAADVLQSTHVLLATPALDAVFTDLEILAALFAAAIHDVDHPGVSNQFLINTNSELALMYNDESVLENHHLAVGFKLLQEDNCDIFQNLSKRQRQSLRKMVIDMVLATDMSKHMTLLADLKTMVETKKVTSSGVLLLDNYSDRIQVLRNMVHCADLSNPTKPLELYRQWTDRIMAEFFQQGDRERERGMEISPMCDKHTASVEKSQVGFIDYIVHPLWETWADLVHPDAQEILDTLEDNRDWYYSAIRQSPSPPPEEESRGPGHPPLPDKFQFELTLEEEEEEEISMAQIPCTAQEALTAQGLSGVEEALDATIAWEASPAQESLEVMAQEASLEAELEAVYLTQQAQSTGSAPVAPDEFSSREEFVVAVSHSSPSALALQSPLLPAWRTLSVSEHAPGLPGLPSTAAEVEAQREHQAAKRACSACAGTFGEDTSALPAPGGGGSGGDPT

Prothrombin = Prothrombin (Homo sapiens, UniProt P00734); type: functional
[6] = molecular target: T4, Muscarinic acetylcholine receptor M2 (Homo sapiens, UniProt P08172)
T4 sequence (P08172 whole entry): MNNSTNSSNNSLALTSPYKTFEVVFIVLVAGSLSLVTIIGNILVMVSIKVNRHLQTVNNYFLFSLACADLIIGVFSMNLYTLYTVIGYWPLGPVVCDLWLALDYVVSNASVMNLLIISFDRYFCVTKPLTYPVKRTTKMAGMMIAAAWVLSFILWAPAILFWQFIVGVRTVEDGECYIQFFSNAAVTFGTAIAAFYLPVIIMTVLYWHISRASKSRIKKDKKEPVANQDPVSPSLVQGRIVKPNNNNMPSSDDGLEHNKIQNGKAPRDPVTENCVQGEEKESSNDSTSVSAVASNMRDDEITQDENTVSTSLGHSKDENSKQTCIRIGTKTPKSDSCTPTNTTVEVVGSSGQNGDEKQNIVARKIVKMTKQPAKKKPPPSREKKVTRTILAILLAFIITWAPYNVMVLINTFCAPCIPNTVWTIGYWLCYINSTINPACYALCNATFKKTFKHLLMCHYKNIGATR

[7] = molecular target: 5-hydroxytryptamine receptor 2B (Homo sapiens, UniProt P41595); type: functional, cell-based
Chain of 5-hydroxytryptamine receptor 2B (P41595 whole entry): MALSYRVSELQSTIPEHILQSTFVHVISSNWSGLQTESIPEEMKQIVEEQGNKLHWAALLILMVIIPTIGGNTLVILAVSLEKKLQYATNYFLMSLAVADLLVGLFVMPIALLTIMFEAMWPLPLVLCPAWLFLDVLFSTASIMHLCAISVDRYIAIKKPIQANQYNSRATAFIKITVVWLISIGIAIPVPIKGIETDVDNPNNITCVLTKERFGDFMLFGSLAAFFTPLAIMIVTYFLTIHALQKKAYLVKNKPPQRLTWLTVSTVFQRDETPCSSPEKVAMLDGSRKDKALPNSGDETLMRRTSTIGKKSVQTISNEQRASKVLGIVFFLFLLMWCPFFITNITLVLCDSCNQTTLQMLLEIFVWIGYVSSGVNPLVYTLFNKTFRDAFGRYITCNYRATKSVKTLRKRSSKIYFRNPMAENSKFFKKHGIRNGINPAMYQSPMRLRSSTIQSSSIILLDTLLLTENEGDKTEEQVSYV

Adenosine receptor A3 = molecular target: T5, Adenosine receptor A3 (Homo sapiens, UniProt P0DMS8)
T5 sequence (P0DMS8 whole entry): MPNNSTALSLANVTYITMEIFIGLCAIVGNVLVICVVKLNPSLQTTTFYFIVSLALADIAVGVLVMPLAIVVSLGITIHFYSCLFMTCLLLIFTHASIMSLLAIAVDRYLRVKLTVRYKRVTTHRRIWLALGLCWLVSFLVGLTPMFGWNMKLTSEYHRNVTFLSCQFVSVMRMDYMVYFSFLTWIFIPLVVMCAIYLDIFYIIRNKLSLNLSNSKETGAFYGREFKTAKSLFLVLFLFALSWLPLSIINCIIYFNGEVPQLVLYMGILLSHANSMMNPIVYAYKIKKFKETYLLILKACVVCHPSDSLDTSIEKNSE
Further: assay procedure not described here.

Row | SMILES | AC50 [1] | AC50 (Progesterone receptor) | AC50 [2] | AC50 [3] | AC50 (Histamine H3 receptor) | AC50 [4] | AC50 [5] | AC50 (Prothrombin) | AC50 [6] | AC50 [7] | AC50 (Adenosine receptor A3)
1 | CCOC(=O)CC(SP(=S)(OC)OC)C(=O)OCC (centres undefined) [MALATHION] | > 30 µM | > 30 µM | > 30 µM | > 30 µM | > 30 µM | > 30 µM | > 30 µM | > 30 µM | > 30 µM | > 30 µM | 
2 | O=C(O)CCn1c2c(c3ccccc31)C[C@H](NS(=O)(=O)c1ccc(F)cc1)CC2 [RAMATROBAN] | > 30 µM | > 30 µM | > 30 µM | > 30 µM | > 30 µM | > 30 µM | > 30 µM | > 30 µM | > 30 µM | > 30 µM | 
3 | NCc1ccccc1CC(=O)N[C@@H]1C(=O)N2C(C(=O)O)=C(CSc3nnnn3CC(=O)O)CS[C@H]12 [CEFORANIDE] | > 30 µM | > 30 µM | > 30 µM | > 30 µM | > 10 µM | > 30 µM | > 30 µM | > 30 µM | > 30 µM | > 30 µM | 
4 | CN1C(=O)N(C)C2C1N(C)C(=O)N2C (centres undefined) [MEBICAR] | > 30 µM | > 30 µM | > 30 µM | > 30 µM | > 30 µM | > 30 µM | > 30 µM | > 30 µM | > 30 µM | > 30 µM | 
5 | NS(=O)(=O)c1cc2c(cc1Cl)NC(CC1CCCC1)NS2(=O)=O (centres undefined) [CYCLOPENTHIAZIDE] | > 30 µM | > 30 µM | > 30 µM | > 30 µM | > 30 µM | > 30 µM | > 30 µM | > 30 µM | > 30 µM | > 30 µM | 
6 | N/N=c1/cc2c(n[nH]1)CCN(C(=O)c1ccccc1)C2 [ENDRALAZINE] | > 30 µM | > 30 µM | > 30 µM | > 30 µM | > 30 µM | 22.3 µM | > 30 µM | > 30 µM | > 30 µM | > 30 µM | 
7 | CCCCN(CCCC)CCCOC(=O)c1ccc(N)cc1 [BUTACAINE] | 2.97 µM |  | > 30 µM | > 30 µM | > 30 µM | > 30 µM | > 30 µM | > 30 µM | 16.3 µM | > 30 µM | > 30 µM
8 | CCS(=O)(=O)N1CC(CC#N)(n2cc(-c3ncnc4[nH]ccc34)cn2)C1 [BARICITINIB] | > 30 µM | > 30 µM | > 30 µM | > 30 µM | > 30 µM | > 30 µM | > 30 µM | > 30 µM | > 30 µM | > 30 µM | 
9 | Nc1ccc(/N=N/c2ccccc2)c(N)n1 [PHENAZOPYRIDINE] | > 30 µM | > 30 µM | 20.9 µM | > 30 µM | > 30 µM | 24.9 µM | 22.5 µM | > 30 µM | > 30 µM | > 30 µM | 
10 | NC(=O)c1cccc2cn(-c3ccc([C@@H]4CCCNC4)cc3)nc12 [NIRAPARIB] | > 30 µM | > 30 µM | > 30 µM | > 30 µM | 26 µM | > 30 µM | > 30 µM | > 30 µM | 14.4 µM | > 30 µM | 
11 | COCC1=C(C(=O)OC(C)OC(=O)OC(C)C)N2C(=O)[C@@H](NC(=O)/C(=N\OC)c3csc(N)n3)[C@H]2SC1 (some centres undefined) [CEFPODOXIME PROXETIL] | > 30 µM | > 30 µM | > 30 µM | > 30 µM | > 30 µM | > 30 µM | > 30 µM | > 30 µM | > 30 µM | > 30 µM | 
12 | CO/N=C(\C(=O)N[C@@H]1C(=O)N2C(C(=O)OCOC(=O)C(C)(C)C)=C(C)CS[C@H]12)c1csc(N)n1 | > 30 µM | > 30 µM | > 30 µM | > 30 µM | > 30 µM | > 30 µM | > 30 µM | > 30 µM | > 30 µM | > 30 µM | 
13 | CC(=O)O[C@]1(C(C)=O)CC[C@H]2[C@@H]3C[C@H](C)C4=CC(=O)CC[C@]4(C)[C@H]3CC[C@@]21C [MEDROXYPROGESTERONE ACETATE] | > 30 µM |  | > 30 µM | > 30 µM | > 30 µM | > 30 µM | > 30 µM | > 30 µM | 21.2 µM | > 30 µM | 
14 | CC(C)=CCC1C(=O)N(c2ccccc2)N(c2ccccc2)C1=O [FEPRAZONE] | > 30 µM | > 30 µM | > 30 µM | > 30 µM | > 30 µM | > 30 µM | > 30 µM | > 30 µM | > 30 µM | > 30 µM | 
15 | O=C(Cn1ccnc1[N+](=O)[O-])NCc1ccccc1 [BENZNIDAZOLE] | > 30 µM | > 30 µM | > 30 µM | > 30 µM | > 30 µM | > 30 µM | > 30 µM | > 30 µM | > 30 µM | > 30 µM | 
16 | COc1cc(NCc2ccc3nc(N)nc(N)c3c2C)cc(OC)c1OC [TRIMETREXATE] | 8.06 µM | > 30 µM | 11.9 µM | > 30 µM | > 30 µM | 2.4 µM | 7.19 µM | > 30 µM | 3.6 µM | > 30 µM | 
